Source: PMC4076210, “Discovery of Novel AKT Inhibitors with Enhanced Anti-Tumor Effects in Combination with the MEK Inhibitor” (PLoS ONE, 2014)

Key:
PKCβ2 = PKCβ2 (Homo sapiens, UniProt P05771); experiment: Kinase IC50 assay; assay type: biochemical
[1] = Compound concentration in blood and tumor (HPLC/MS/MS); assay type: in vivo, mouse
Description: Concentration of the test compounds in the tissue and blood was analyzed using protein precipitation with acetonitrile, followed by HPLC/MS/MS analysis using positive ion atmospheric pressure chemical ionization or Turbo ionspray ionization (API 4000 or API 5000, Applied Biosystems).
The pharmacodynamic studies were carried out in SCID mice bearing BT474 tumor xenografts. […] Concentration of the test compounds was analysed by HPLC/MS/MS analysis.

PKBγ(h) = molecular target: T1, PKBγ(h) (Homo sapiens, UniProt Q9Y243); experiment: Kinase panel; assay type: biochemical
T1 construct: purchased Millipore KinaseProfiler
T1 sequence (Q9Y243 whole entry): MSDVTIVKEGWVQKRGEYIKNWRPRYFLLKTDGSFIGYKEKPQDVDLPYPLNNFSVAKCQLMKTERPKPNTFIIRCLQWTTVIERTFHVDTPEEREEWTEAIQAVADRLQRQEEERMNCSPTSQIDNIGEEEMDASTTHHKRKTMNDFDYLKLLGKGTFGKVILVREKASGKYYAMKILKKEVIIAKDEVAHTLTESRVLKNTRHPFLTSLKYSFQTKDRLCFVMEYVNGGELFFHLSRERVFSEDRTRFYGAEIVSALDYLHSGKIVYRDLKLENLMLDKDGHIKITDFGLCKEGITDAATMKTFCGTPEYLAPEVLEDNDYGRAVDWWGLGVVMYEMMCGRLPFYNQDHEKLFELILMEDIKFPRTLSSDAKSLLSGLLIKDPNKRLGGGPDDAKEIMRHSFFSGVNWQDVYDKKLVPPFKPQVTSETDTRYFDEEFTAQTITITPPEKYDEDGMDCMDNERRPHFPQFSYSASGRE

I9.2 cells = experiment: Cell cycle analysis; assay type: cell-based, human; settings: I9.2, 1 µM
Description: (§1) Cells were plated in 96 well plates at a density of 3000-5000 cells/well and allowed to adhere overnight. Cells were treated with DMSO or various concentrations of drug for 72 h, fixed and stained with propidium iodide to stain nuclei (Vindelov, 1982). Cells were analyzed in a flow cytometer (FACSCalibur; BD Biosciences, Franklin Lakes, NJ) and the fraction of cells in each phase of cell cycle was determined using the cell cycle analysis platform contained within the FlowJo software (Tree Star, Ashland, OR).

BT474 cells = experiment: Cell cycle analysis; assay type: cell-based, human; settings: BT474, evident at 1 µM
Description: as §1

A3 cells = experiment: Cell cycle analysis; assay type: cell-based, human; settings: A3, 1 µM
Description: as §1

LNCaP cells = experiment: Cell cycle analysis; assay type: cell-based, human; settings: various concentrations
Description: as §1

CLK2(h) = molecular target: T2, CLK2(h) (Homo sapiens, UniProt P49760); experiment: Kinase panel; assay type: biochemical
T2 construct: purchased Millipore KinaseProfiler
T2 sequence (P49760 whole entry): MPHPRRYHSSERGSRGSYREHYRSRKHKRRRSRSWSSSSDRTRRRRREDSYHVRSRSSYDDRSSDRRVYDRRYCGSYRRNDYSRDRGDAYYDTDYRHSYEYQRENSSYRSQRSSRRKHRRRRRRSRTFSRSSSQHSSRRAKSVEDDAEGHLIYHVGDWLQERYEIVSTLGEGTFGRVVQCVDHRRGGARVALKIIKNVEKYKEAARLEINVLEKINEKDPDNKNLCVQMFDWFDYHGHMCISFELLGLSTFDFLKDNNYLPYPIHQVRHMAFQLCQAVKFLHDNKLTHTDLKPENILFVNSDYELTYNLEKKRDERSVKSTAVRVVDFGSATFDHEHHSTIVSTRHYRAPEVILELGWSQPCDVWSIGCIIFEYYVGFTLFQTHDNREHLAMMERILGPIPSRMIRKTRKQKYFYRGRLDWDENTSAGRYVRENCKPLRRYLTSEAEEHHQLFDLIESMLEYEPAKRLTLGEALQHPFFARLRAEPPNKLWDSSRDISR

HPAC tumor xenografts = experiment: Xenograft tumor growth inhibition, combination with MEK inhibitor; assay type: in vivo, mouse; settings: 30 mg/kg daily, day 42
Description: (§2) Tumors were initiated by injecting either cells (SKOV3, CAPAN-2 and HPAC) or a tumor fragments (BT474) subcutaneously into 6–8 week female athymic nude (SKOV3) and SCID (all others) mice. Once tumors reached between 120 and 300 mm^3, mice were randomized according to tumor volume into groups of n = 7–10 mice per treatment. GSK2110183 and GSK2141795 were administered daily at various doses by oral gavage. In combination experiments, GSK1120212 was also administered daily by oral gavage. Tumor volumes and body weight were measured twice weekly, tumor volume was measured with calipers and calculated using equation: […]. Results are represented as percent inhibition on completion of dosing = 100 x [1- average growth of drug-treated population/average growth of vehicle-treated control population].

CAPAN-2 tumor xenografts = experiment: as above; assay type: in vivo, mouse; settings: 30 mg/kg, day 69
Description: as §2

CLK3(h) = molecular target: T3, CLK3(h) (Homo sapiens, UniProt P49761); experiment: Kinase panel; assay type: biochemical
T3 construct: purchased Millipore KinaseProfiler
T3 sequence (P49761 whole entry): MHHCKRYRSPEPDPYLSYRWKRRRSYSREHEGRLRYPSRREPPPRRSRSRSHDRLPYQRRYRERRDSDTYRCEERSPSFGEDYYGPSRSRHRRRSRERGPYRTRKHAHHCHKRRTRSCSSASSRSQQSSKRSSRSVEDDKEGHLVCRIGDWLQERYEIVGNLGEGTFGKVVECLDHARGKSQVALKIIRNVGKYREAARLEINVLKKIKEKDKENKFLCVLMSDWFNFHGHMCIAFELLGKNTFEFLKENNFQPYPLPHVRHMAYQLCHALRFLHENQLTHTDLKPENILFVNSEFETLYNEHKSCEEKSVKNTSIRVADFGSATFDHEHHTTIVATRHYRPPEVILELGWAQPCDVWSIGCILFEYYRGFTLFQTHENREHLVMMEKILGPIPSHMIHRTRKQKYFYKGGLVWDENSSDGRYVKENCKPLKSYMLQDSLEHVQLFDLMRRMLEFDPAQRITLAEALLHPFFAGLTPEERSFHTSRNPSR

cancer patients = settings: unselected patient population; cited from earlier work

Sequence of PKCβ2 (P05771 1-673 isoform P05771-2): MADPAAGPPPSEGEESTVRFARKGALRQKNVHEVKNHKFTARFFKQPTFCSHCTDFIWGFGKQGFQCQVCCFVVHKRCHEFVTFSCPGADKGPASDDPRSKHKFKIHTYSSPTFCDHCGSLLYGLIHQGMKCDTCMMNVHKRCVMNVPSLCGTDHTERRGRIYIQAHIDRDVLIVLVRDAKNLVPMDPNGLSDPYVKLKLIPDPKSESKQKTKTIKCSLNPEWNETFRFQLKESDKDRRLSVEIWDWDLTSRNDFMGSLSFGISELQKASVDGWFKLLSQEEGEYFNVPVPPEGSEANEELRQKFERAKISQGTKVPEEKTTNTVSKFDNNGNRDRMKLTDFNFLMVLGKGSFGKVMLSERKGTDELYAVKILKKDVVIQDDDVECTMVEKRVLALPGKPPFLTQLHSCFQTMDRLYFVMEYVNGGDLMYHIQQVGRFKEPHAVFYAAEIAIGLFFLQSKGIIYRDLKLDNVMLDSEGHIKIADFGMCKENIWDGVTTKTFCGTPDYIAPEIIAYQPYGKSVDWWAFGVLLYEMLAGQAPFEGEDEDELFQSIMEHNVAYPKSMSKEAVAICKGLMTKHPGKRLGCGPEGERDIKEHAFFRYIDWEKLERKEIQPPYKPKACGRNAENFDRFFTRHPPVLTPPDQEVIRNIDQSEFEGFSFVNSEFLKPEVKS

SMILES	IC50 (PKCβ2)	blood concentrations ([1]; 30 mg/kg QDx7, time course, maintained for 8 h)	concentration at 2 h ([1]; SCID, mouse, whole blood, 30 mg/kg QDx7 oral, 2 h post last dose)	inhibition at 0.5 µM (PKBγ(h); 0.5 µM)	inhibition at 10 µM (PKBγ(h); 10 µM)	effect on cell cycle (I9.2 cells)	effect on cell cycle (BT474 cells)	effect on cell cycle (A3 cells)	effect on cell cycle (LNCaP cells)	inhibition at 0.5 µM (CLK2(h); 0.5 µM)	inhibition at 10 µM (CLK2(h); 10 µM)	TGI (HPAC tumor xenografts)	TGI (CAPAN-2 tumor xenografts)	inhibition at 0.5 µM (CLK3(h); 0.5 µM)	inhibition at 10 µM (CLK3(h); 10 µM)	clinical activity, single agent (cancer patients)
Cn1ncc(Cl)c1-c1cc(C(=O)N[C@H](CN)Cc2cccc(F)c2)sc1Cl [GSK2110183]	> 1000 nM															
Cn1ncc(Cl)c1-c1cc(C(=O)N[C@H](CN)Cc2ccc(F)c(F)c2)oc1Cl [GSK2141795]		2000 to 3000 nM	~3000 nM	98%	98%	dose dependant increase in G1 cellular arrest	G1 arrest	dose dependant increase in G1 cellular arrest	concentration-dependent increase in cells within the sub-G1 phase	58%	94%	31%	26%	2%	59%	partial response and stable disease
